The target in experiment [1] is T1, DIM-5 (Neurospora crassa, UniProt Q8X225). Particulars: when EDTA completely abolished DIM-5 activity.
Method: To remove zinc bound to EDTA, the protein was either dialyzed (Exp1) or subjected to gel filtration chromatography (Exp2) against 20 mM glycine (pH 9.8), 5% glycerol, 0.5 mM DTT and 1 mM EDTA.
One sample of untreated and two samples of EDTA treated DIM-5 protein (about 2 ml of 2 mg/ml each) was analyzed for the presence of 20 elements on a Thermo Jarrell-Ash Enviro 36 ICAP analyzer at the Chemical Analysis Laboratory of the University of Georgia at Athens. In order to calculate the molar ratio of Zn to protein, the precise concentration of the untreated DIM-5 protein was determined by amino acid analysis (averaging two independent measurements) performed at the Keck Facilities at Yale University. The extinction coefficient (29,559 M^−1 cm^−1) derived from the amino acid analysis was used to estimate the protein concentration of the EDTA-treated samples.
Experiment [2] concerns the target T1, DIM-5. The experiment can be described thus: Methyl transfer (HKMT) activity assay. The arrangement: A segment of the wild-type dim-5 ORF, including amino acid residues 17-318, was amplified; GST (N, cleaved yes); made in house; host or cells: E. coli BL21(DE3) Codon plus RIL carrying pXC379 (pGEX2T). Particulars: for DIM-5 activity after incubation with metal chelator: incubation of metal chelator with DIM-5 protein. Format: biochemical, N. crassa. As to the method: The activity of the DIM-5 was assayed in a 20 μl reaction containing 50 mM glycine (pH 9.8), 2 mM DTT, 40-80 μM unlabelled AdoMet (Sigma), 0.5 μCi [methyl-^3H]AdoMet (78 Ci/mmol, NEN NET155H), 0.25-0.5 μg of DIM-5 protein, and 2-5 μg histones (calf thymus histones Sigma H4524, Roche 223565, or recombinant chicken erythrocyte histones, a gift from Dr. V. Ramakrishnan). The reaction was incubated at room temperature for 10-15 min and methylation was analyzed either by SDS-PAGE and fluorography, or by precipitation with 20% TCA, filtration (Milipore GF/F filter), washing and liquid scintillation counting. Under these conditions, DIM-5 activity was linearly related to reaction time and amount of enzyme and AdoMet and histone were saturating. For some reason, the relatively crude Sigma H4524 histone preparations generally gave 2-4 fold higher incorporation than either the Roche preparations or the recombinant histones.

The target in experiment [3] is T1, DIM-5. The experiment is described as follows: AdoMet-binding assay by UV crosslinking. More on the design: A segment of the wild-type dim-5 ORF, including amino acid residues 17-318, was amplified; GST (N, cleaved yes); made in house; host or cells: E. coli BL21(DE3) Codon plus RIL carrying pXC379 (pGEX2T); species or system N. crassa. Particulars: incubation of metal chelator with DIM-5 protein. As to the method:
Twenty μl of purified DIM-5 protein (2-5 μg) was incubated with 0.5 μCi of [methyl-^3H]AdoMet (78 Ci/mmol, NEN NET155H) overnight at 4° C. Samples were added to a 96-well plate on ice and placed 8 cm from an inverted UV transilluminator (VWR, 302 nm) for 1 hr. The protein was then separated by SDS-PAGE, stained with Coomassie and subjected to fluorography.

Entries after “also recorded” stand apart in the source; their conditions may differ.

T1 sequence (Q8X225 30-331): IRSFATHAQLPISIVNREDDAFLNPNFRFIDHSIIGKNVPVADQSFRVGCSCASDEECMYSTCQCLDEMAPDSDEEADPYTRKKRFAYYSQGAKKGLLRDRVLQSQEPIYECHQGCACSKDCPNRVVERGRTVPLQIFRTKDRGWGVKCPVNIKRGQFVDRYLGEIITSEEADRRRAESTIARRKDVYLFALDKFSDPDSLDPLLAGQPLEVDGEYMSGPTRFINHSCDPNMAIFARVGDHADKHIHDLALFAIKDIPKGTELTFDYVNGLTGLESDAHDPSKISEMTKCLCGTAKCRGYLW

For the compound `O=C(O)CN(CCN(CC(=O)O)CC(=O)O)CC(=O)O` [EDTA], in experiment [1], the “zinc ions retained by the protein” value was roughly 2.9 zinc ions. In addition, the HKMT activity entry in experiment [2] (DIM-5 incubated with 20 mM EDTA for 2 days) is “no longer detectable”. In addition, the “DIM-5 activity after incubation with metal chelator” value in experiment [2] was “inhibited its activity; also recorded: completely abolished”. Also, the AdoMet-binding entry in experiment [3] is “significantly reduced”.
Turning to `[Cl-].[Na+]` [NaCl], the “inhibition of DIM-5 activity” value in experiment [2] (100 mM NaCl) is “about 95%”.
As for `c1cnc2c(c1)ccc1cccnc12` [phenanthroline, 1,10-phenanthroline], the “DIM-5 activity after incubation with metal chelator” value in experiment [2] was “inhibited its activity”. The AdoMet-binding entry in experiment [3] was “significantly reduced”.

The record behind these values is patent US20070178523A1, “Novel druggable regions in set domain proteins, and methods of using the same” (Emory University, priority 2002, published 2007).
